The values that follow come from patent publication US12416009B2, “Methods and compositions for the modification of plants” (Flagship Pioneering Innovations VI, LLC, priority 2018, dated 2025).

Data set [1] has as its system plants. The conditions noted are these: Culiarez-Mac et al, Plant Growth Regulation 1987; cited from earlier work.
The subject of data set [2] is Arabidopsis thaliana seedlings. Description: Cytotoxicity of free DOX and DOX-loaded PMPs in Arabidopsis thaliana seedlings. It is filed as in vivo, Arabidopsis thaliana Col-0. Particulars: 100 μM DOX dose; 24 hours exposure, then 3 days; 7-day old seedlings. On the procedure:
Grapefruit PMPs were produced and loaded with doxorubicin as described in Examples 16a and 16b. Wild type Arabidopsis thaliana Col-0 seeds were obtained from the ABRC, surface sterilized with 50% bleach, stratified for 1-3 d at 4° C., and germinated on half-strength (0.5×) Murashige and Skoog (MS) medium supplemented with 0.5% sucrose, 2.5 mM MES, pH 5.6, containing 0.8% agar, with a photoperiod of 16 h light 23° C./8 h dark 21° C.
To test whether PMPs can deliver a small molecule cargo in planta, 7-day old Arabidopsis thaliana seedlings were transferred to 0.5× liquid MS medium in a 24 well plate (1 seedling per well), and treated with free DOX or DOX-loaded PMPs with an encapsulated DOX dose of 0 (negative control), 25 μM, 50 μM and 100 μM. The plate was covered with aluminum foil and incubated for 24 hours. DOX-containing medium was removed, the seedlings were washed two times with ½×MS medium, and fresh medium was added. Seedlings were incubated for an additional 3 days under a normal photoperiod (16 h light 23° C./8 h dark 21° C.). Next, seedlings were removed from the plate and towel-dried for imaging and cytotoxicity was assessed by analyzing leaf vigor, leaf color and root length. Cytotoxicity is defined by shortening of the roots, loss of leaf vigor, and leaf discoloration (yellow instead of green) when compared to an untreated seedling control.

In data set [3] the test system is Glycine max cell line. The data set is described as follows: Uptake of AF488-labeled lemon PMPs by plant cells (epifluorescence microscopy). It is filed as cell-based. The conditions noted are these: 1×10^12 AF488-PMPs/mL, 2 hours at 24° C. The method, then: (§1) Plant cell lines were purchased from the Deutsche Sammlung von Mikroorganismen und Zellkulturen (DSMZ) (Glycine max, #PC-1026; Triticum aestivum, #PC-998) and ABRC (Zea mays, Black Mexican sweet (BMS), and were grown in baffled vented 250 mL flasks in the dark, at 24° C. with agitation (110 rpm). Glycine max and Triticum aestivum were grown in 3.2 g/L Gamborg's B-5 Basal Medium with Minimal Organics supplemented (G5893, Millipore Sigma) pH 5.5, supplemented with 2% sucrose, and 2 mg/L 2,4-dichlorophenoxyacetic acid (2,4D) (D7299, Millipore Sigma) according to the supplier's instructions. BMS cells were grown in Murashige and Skoog basal medium pH 5.8, containing 4.3 g/L Murashige and Skoog Basal Salt Mixture (Sigma M5524), 2% sucrose (S0389, Millipore Sigma), 1×MS vitamin solution (M3900, Millipore Sigma), 2 mg/L 2,4-dichlorophenoxyacetic acid (D7299, Millipore Sigma) and 250 ug/L thiamine HCL (V-014, Millipore Sigma).
(§2) For treatment with AF488-PMPs, 5 mL of the cell suspensions was taken to determine the percent Pack Cell Volume (PCV). The PCV is defined as the volume of cells divided by the total volume of the cell culture aliquot, and expressed as a percentage. Cells were centrifuged for 5 min at 3900 rpm, and the volume of the cell pellet was determined. The % PCV for BMS, Glycine max, and Triticum aestivum were 20%, 15%, and 18%, respectively. For the uptake experiment, the % PCV of the cultures was adjusted to 2%, by diluting cells in their appropriate medium. Next, 125 μl of the plant cell suspensions was added to a 24 well plate, and duplicate samples were treated with 125 μl MES buffer (200 mM MES+10 mM NaCl, pH6) alone (negative control), AF488 dye only (dye only control) or a final concentration of 1×10^12 AF488-PMPs/mL diluted in MES buffer to 125 μl. Cells were incubated for 2 hours at 24° C. in the dark, washed three times with 1 mL MES buffer to remove AF488-PMPs or free dye that had not been taken up, and resuspended in 300 μL of MES buffer for imaging on an epifluorescence microscope (EVOS FL Auto 2, Invitrogen).

Data set [4] deals with Zea mays Black Mexican sweet (BMS) cells. Described as above. It is filed as cell-based. Particulars: 1×10^12 AF488-PMPs/mL, 2 hours at 24° C. On the procedure: as §1, §2
Data set [5] relates to Triticum aestivum cell line. The data set is described as above. The data set is classed as cell-based. The conditions noted are these: 1×10^12 AF488-PMPs/mL, 2 hours at 24° C. On the procedure:
as §1, §2

Turning to `COc1cccc2c1C(=O)c1c(O)c3c(c(O)c1C2=O)C[C@@](O)(C(=O)CO)C[C@@H]3O[C@H]1C[C@H](N)[C@H](O)[C@H](C)O1` [free DOX, doxorubicin], the cytotoxicity in plants result in data set [1] is “cytotoxic in plants”. For the same compound, the “cytotoxicity (root shortening, loss of leaf vigor, leaf discoloration)” value in data set [2] is “root shortening and leaf discoloration”.
“Alexa Fluor 488® NHS Ester [AF488 dye only]”: the “AF488 fluorescence signal in cells (PMP uptake)” value in data set [3], in data set [4] and in data set [5] was “no detectable fluorescence” in each case.
